What follows are compounds tested against human activated kallikrein enzyme (Homo sapiens, UniProt P03952) (assay: Inhibition of human activated plasma kallikrein, fluorogenic peptide substrate (PFR-AMC), 500 pM enzyme format). Details: 500 pM activated kallikrein, 30 min preincubation, 10 min reaction, room temperature, read-out: Primary Dose Response Assay: Average EC50.
Assay type: biochemical
Description: Compounds were evaluated for inhibition of the human activated kallikrein enzyme in two formats of an assay employing a fluorogenic peptide substrate. In one assay format, the concentrations of reagents were as follows: 20 mM Tris pH 7.5, 1 mM EDTA, 150 mM sodium chloride, 0.1% PEG-400, 0.1% Triton X-100, 500 pM activated kallikrein enzyme, […] Pro-Phe-Arg-7-amido-4-methylcoumarin (PFR-AMC) substrate. Prior to reaction initiation with substrate, enzyme and inhibitors were preincubated for 30 min at room temperature. After initiation with substrate, reactions were incubated for 10 min at room temperature and fluorescence emission at 460 nm from 380 nm excitation measured with a microplate reader. In another assay format, the concentrations of reagents were as follows: 20 mM Tris pH 7.5, 1 mM EDTA, 150 mM sodium chloride, 0.1% PEG-400, 0.1% Triton X-100, 5 pM activated kallikrein enzyme, 300 uM PFR-AMC substrate. Prior to reaction initiation with substrate, enzyme and inhibitors were preincubated for 30 min at room temperature. After initiation with substrate, reactions were incubated for 18 hr at room temperature and fluorescence emission at 460 nm from 380 nm excitation measured with a microplate reader.

Sequence of human activated kallikrein enzyme (P03952 391-638 limits assumed): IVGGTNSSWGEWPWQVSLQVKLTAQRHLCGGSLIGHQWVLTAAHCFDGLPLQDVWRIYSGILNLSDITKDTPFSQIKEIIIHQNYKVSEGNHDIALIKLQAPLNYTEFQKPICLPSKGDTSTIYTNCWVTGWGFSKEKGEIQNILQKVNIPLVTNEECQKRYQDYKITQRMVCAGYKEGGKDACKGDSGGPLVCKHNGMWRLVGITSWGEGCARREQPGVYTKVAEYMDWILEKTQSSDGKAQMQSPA
Sequence of human activated kallikrein enzyme (P03952 20-390 partner limits assumed): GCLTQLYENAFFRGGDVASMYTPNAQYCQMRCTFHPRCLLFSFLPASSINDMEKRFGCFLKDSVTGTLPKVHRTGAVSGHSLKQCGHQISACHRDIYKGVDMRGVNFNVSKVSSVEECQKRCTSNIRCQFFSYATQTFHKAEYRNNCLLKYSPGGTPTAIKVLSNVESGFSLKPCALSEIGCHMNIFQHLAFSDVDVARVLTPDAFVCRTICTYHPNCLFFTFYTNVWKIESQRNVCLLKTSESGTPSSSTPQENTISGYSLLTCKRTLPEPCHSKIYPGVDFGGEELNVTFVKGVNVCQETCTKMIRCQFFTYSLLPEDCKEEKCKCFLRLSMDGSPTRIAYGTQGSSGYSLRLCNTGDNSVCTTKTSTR

SMILES	EC50
O=C(Nc1cc(NCc2ccc(Cn3ccccc3=O)cc2)cnn1)[C@H]1C[C@@H]1c1cccc(Cl)c1 (single isomer, unassigned) [Example 15]	25 to 500 nM
O=C(Nc1cnn(Cc2ccc(Cn3cccn3)cc2)c1)[C@H]1C[C@@H]1c1cccc(Cl)c1 (racemic) [Example 10, rac-(1S*,2S*)—N-(1-(4-((1H-pyrazol-1-yl)methyl)benzyl)-1H-pyrazol-4-yl)-2-(3-chlorophenyl)cyclopropane-1-carboxamide]	> 500 nM
CC(Oc1cnnc(NC(=O)[C@H]2C[C@@H]2c2cccc(Cl)c2)c1)c1ccc(Cn2cccn2)cc1 (relative stereo) [Example 3, rac-(1S*,2S*)-N-(5-(1-(4-((1H-pyrazol-1-yl)methyl)phenyl)ethoxy)pyridazin-3-yl)-2-(3-chlorophenyl)cyclopropane-1-carboxamide]	2.5 to 25 nM
Cc1ccnc([C@H]2C[C@@H]2C(=O)Nc2cc(N[C@@H](C)c3nc4c(N5CC(=O)N(C)C5=O)cc(C5CC5)cn4n3)ncn2)n1 (single isomer, unassigned; isomer 2) [Example 108]	2.5 to 25 nM
O=C(Nc1cc(OCc2ccc(Cn3cccn3)cc2)cnn1)[C@H]1C[C@@H]1c1cccc(Cl)c1 (racemic) [Example 18, rac-(1S*,2S*)—N-(5-((4-((1H-pyrazol-1-yl)methyl)benzyl)oxy)pyridazin-3-yl)-2-(3-chlorophenyl)cyclopropane-1-carboxamide]	2.5 to 25 nM
Nc1ncccc1[C@H]1C[C@@H]1C(=O)Nc1cc(OCc2ccc(Cn3cccn3)cc2)cnn1 (racemic) [Example 8, rac-(1S*,2S*)—N-(5-((4-((1H-pyrazol-1-yl)methyl)benzyl)oxy)pyridazin-3-yl)-2-(2-aminopyridin-3-yl)cyclopropane-1-carboxamide]	25 to 500 nM
O=C(Nc1cc(Cc2ccc3ncc(C4CC4)cc3c2)ncn1)[C@H]1C[C@@H]1c1cccc(Cl)c1 (racemic) [Example 21, rac-(1S*,2S*)-2-(3-chlorophenyl)-N-(6-((3-cyclopropylquinolin-6-yl)methyl)pyrimidin-4-yl)cyclopropane-1-carboxamide]	> 500 nM
Cc1cnn(-c2cc(COc3cnnc(NC(=O)[C@H]4C[C@@H]4c4cccc(Cl)c4)c3)ccn2)c1 (racemic) [Example 11, rac-(1S*,2S*)-2-(3-chlorophenyl)-N-(5-((2-(4-methyl-1H-pyrazol-1-yl)pyridin-4-yl)methoxy)pyridazin-3-yl)cyclopropanecarboxamide]	> 500 nM

Second part, the compound after the results:

EC50	SMILES
> 500 nM	CN(C(=O)[C@H]1C[C@H](O)CN1c1cc(NC(=O)[C@H]2C[C@@H]2c2cccc(Cl)c2)ncn1)c1ccc(C2CC2)cc1 [Example 65, (2R,4S)-1-(6-((1S,2S)-2-(3-chlorophenyl)cyclopropane-1-carboxamido)pyrimidin-4-yl)-N-(4-cyclopropylphenyl)-4-hydroxy-N-methylpyrrolidine-2-carboxamide]
> 500 nM	CC(C)Oc1nccc2nc(CNc3cc(NC(=O)[C@H]4C[C@@H]4c4cccc(Cl)c4)ncn3)cn12 [Example 37, (1S,2S)-2-(3-chlorophenyl)-N-(6-(((5-isopropoxyimidazo[1,2-c]pyrimidin-2-yl)methyl)amino)pyrimidin-4-yl)cyclopropane-1-carboxamide]
2.5 to 25 nM	O=C(Nc1cc(NCc2nc3ncc(C4CC4)cn3n2)ncn1)[C@H]1C[C@@H]1c1cccc(Cl)c1 [Example 32, (1S,2S)-2-(3-chlorophenyl)-N-(6-(((6-cyclopropyl-[1,2,4]triazolo[1,5-a]pyrimidin-2-yl)methyl)amino)pyrimidin-4-yl)cyclopropane-1-carboxamide]
2.5 to 25 nM	CC(C)(C#N)Cc1cc(C2CC2)cc2cc(CNc3cc(NC(=O)[C@H]4C[C@@H]4c4cccc(Cl)c4)ncn3)nn12 [Example 55, (1S,2S)-2-(3-chlorophenyl)-N-(6-(((7-(2-cyano-2-methylpropyl)-5-cyclopropylpyrazolo[1,5-a]pyridin-2-yl)methyl)amino)pyrimidin-4-yl)cyclopropane-1-carboxamide]
2.5 to 25 nM	N#Cc1ccc(Cl)cc1[C@H]1C[C@@H]1C(=O)Nc1cc(NCc2nc3ccc(C4CC4)nn3n2)ncn1 (racemic) [Example 27, rac-(1S*,2S*)-2-(5-chloro-2-cyanophenyl)-N-(6-(((6-cyclopropyl-[1,2,4]triazolo[1,5-b]pyridazin-2-yl)methyl)amino)pyrimidin-4-yl)cyclopropane-1-carboxamide]
25 to 500 nM	O=C(Nc1cc(NCc2nc3ccc(C4CC4)cn3n2)ncn1)[C@H]1C[C@@H]1c1cccc(Cl)c1 [Example 26, (1S,2S)-2-(3-chlorophenyl)-N-(6-(((6-cyclopropyl-[1,2,4]triazolo[1,5-a]pyridin-2-yl)methyl)amino)pyrimidin-4-yl)cyclopropane-1-carboxamide]
2.5 to 25 nM	O=C(Nc1cc(NCc2ccc3ncc(C4CC4)cc3c2)ccn1)[C@H]1C[C@@H]1c1cccc(Cl)c1 [Example 33, (1S,2S)-2-(3-chlorophenyl)-N-(4-(((3-cyclopropylquinolin-6-yl)methyl)amino)pyridin-2-yl)cyclopropane-1-carboxamide]
< 2.5 nM	N#Cc1ccc(Cl)cc1[C@H]1C[C@@H]1C(=O)Nc1cc(NCc2nc3ccc(C4CC4)cn3n2)ccn1 (racemic) [Example 30, rac-(1S*,2S*)-2-(5-chloro-2-cyanophenyl)-N-(4-(((6-cyclopropyl-[1,2,4]triazolo[1,5-a]pyridin-2-yl)methyl)amino)pyridin-2-yl)cyclopropane-1-carboxamide]
2.5 to 25 nM	Cc1ccnc([C@H]2C[C@@H]2C(=O)Nc2cc(N3C[C@@H](O)CC3c3ccc(N4CC5CC5C4)nc3)ncn2)n1 (relative stereo) [Example 69, rac-(1S*,2S*)—N-(6-((4S)-2-(6-(3-azabicyclo[3.1.0]hexan-3-yl)pyrin-3-yl)-4-hydroxypyrrolidin-1-yl)pyrimidin-4-yl)-2-(4-methylpyrimidin-2-yl)cyclopropane-1-carboxamide]
25 to 500 nM	Cc1ccnc([C@H]2C[C@@H]2C(=O)Nc2cc(N3C[C@@H](O)C[C@@H]3c3cn4cc(C5CC5)cnc4n3)ncn2)c1F (relative stereo) [Example 76, rac-(1S*,2S*)—N-(6-((2R,4S)-2-(6-cyclopropylimidazo[1,2-a]pyrimidin-2-yl)-4-hydroxypyrrolidin-1-yl)pyrimidin-4-yl)-2-(3-fluoro-4-methylpyridin-2-yl)cyclopropane-1-carboxamide]
2.5 to 25 nM	CN1C(=O)CN(c2cc(C3CC3)nn3cc(CNc4cc(NC(=O)[C@H]5C[C@@H]5c5cccc(Cl)c5)ncn4)nc23)C1=O [Example 62, (S,2S)-2-(3-chlorophenyl)-N-(6-(((6-cyclopropyl-8-(3-methyl-2,4-dioxoimidazolidin-1-yl)imidazo[1,2-b]pyridazin-2-yl)methyl)amino)pyrimidin-4-yl)cyclopropane-1-carboxamide]
> 500 nM	O=C(Nc1cc(NCc2nc3ccc(C4CC4)nn3n2)ncn1)[C@H]1C[C@@H]1c1cccc(Cl)c1 [Example 28, (1S,2S)-2-(3-chlorophenyl)-N-(6-(((6-cyclopropyl-[1,2,4]triazolo[1,5-b]pyridazin-2-yl)methyl)amino)pyrimidin-4-yl)cyclopropane-1-carboxamide]

Source: US20240226106A1, “INHIBITORS OF PLASMA KALLIKREIN” (SHIRE HUMAN GENETIC THERAPIES, INC., priority 2021, published 2024)
